In assay [1] the target is T1, GLP-1R (Homo sapiens, UniProt P43220). Briefly: GLP-1R Activation - cAMP Assay 1. In kind it is cell-based. To be noted: cAMP increase in CHO cells stably expressing GLP-1R; 10-point dose response, 30 minutes incubation at 37° C. Here is the method: GLP-1R Activation—cAMP Assay 1
GLP-1R activation by a compound of the present disclosure was quantified by measuring cAMP increase in CHO cells stably expressing GLP-1R (MultiSpan product #C1267-1a). The cells were harvested and plated in growth medium (DMEM/F-12 (Corning product #10-090-CV) supplemented with 10% FBS (HyClone product #SH30071-03), penicillin/streptomycin (Corning product #30-002CI) and 10 µg/ml puromycin (Gibco product #A11138-03)) at 1,000 cells/well in a 384-well plate (Greiner product #781080). The cells were then incubated overnight at 37° C., 5% CO2. The next day, the medium was removed and the cells were washed with DPBS (Corning product #21-031-CM) before adding the assay medium (HBSS, Corning product #21-023-CV) with 20 mM Hepes (Gibco product #15630-080) and 0. 1% BSA (Rockland Immunochemicals product #BSA-1000)). Following the medium change, the cells were incubated for 1 hour at 37° C., 5% CO2. The tested GLP-1 compound was added to the cells in a 10-point dose response followed by a 30 minutes incubation at 37° C., 5% CO2. cAMP concentration increase was then detected using Cisbio's cAMP Gs Dynamic Kit (product #62AM4PEC) according to the manufacturer's protocol. The response was plotted against the log of the agonist concentration and fitted to a sigmoidal equation to determine the EC50.

Assay [2] has as its target T1, GLP-1R. Briefly: GLP-1R Activation - cAMP Assay 2. The format is cell-based. As for the experimental part:
GLP-1R Activation—cAMP Assay 2 GLP-1R activation by small molecule agonists is quantified by measuring cAMP increase in CHO cells stably expressing GLP-1R (MultiSpan product #C1267-1a). 50 nL of agonists are pre-spotted in a 10-point dose response onto 384-well plate (Corning product #CL3826) using the Labcyte Echo System. […] The cells are then incubated for 30 minutes at 37° C., 5% CO2. cAMP concentration increase is then detected using Cisbio's cAMP Gs Dynamic Kit (product #62AM4PEC) according to the manufacturer's protocol. The response is plotted against the log of the agonist concentration and fitted to a sigmoidal equation to determine the EC50.

Where [3] appears, read: cAMP increase in CHO cells stably expressing GLP-1R, pre-spotted agonists, assay buffer or 100% Human Plasma (not stated which), 30 minutes at 37° C., read-out: GLP-1R Activation- Assay 2 EC50 (nm).

Molecules are shown by their SMILES. Where only a bound is given, the exact number is not on record here.

T1 sequence (P43220 24-463): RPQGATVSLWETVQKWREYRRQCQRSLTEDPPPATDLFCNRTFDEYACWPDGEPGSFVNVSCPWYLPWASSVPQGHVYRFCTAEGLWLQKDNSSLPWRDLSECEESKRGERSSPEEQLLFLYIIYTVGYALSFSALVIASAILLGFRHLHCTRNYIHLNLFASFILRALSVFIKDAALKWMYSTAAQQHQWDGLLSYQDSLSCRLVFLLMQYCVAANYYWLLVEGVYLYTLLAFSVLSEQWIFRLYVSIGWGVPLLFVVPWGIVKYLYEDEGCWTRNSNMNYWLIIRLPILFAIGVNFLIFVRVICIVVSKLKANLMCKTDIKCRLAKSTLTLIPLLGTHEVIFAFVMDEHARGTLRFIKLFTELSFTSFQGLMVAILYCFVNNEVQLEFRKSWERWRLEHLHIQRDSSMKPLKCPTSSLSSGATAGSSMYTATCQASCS

On to `COCCn1c(CN2CCC(c3cccc(OCc4cnn(C)n4)n3)CC2)nc2ccc(C(=O)O)cc21` [Example 20, 1-(2-methoxyethyl)-2-((4-(6-((2-methyl-2H-1,2,3-triazol-4-yl)methoxy)pyridin-2-yl)piperidin-1-yl)methyl)-1H-benzo[d]imidazole-6-carboxylic acid], for which the EC50 (as a rule, the concentration that produces a half-maximal response) in assay [1] turned out to be 4350 nM.

In assay [1], `COCCn1c(CN2CCC(c3cccc(OCc4nnc(Cl)s4)n3)CC2)nc2ccc(C(=O)O)cc21` [Example 4] gave an EC50 of 294 nM.

Molecule `COCCn1c(CN2CCC(c3cccc(OCc4ccc(C#N)s4)n3)CC2)nc2ccc(C(=O)O)cc21` [Example 2, 2-((4-(6-((5-cyanothiophen-2-yl)methoxy)pyridin-2-yl)piperidin-1-yl)methyl)-1-(2-methoxyethyl)-1H-benzo[d]imidazole-6-carboxylic acid] returned a concentration for a half-maximal effect (EC50) in assay [1] of 47.3 nM.

As for `NC(=O)c1ccc(COc2cccc(C3CCN(Cc4nc5ccc(C(=O)O)cc5n4C[C@@H]4CCO4)CC3)n2)s1` [Example 7, (S)-2-((4-(6-((5-carbamoylthiophen-2-yl)methoxy)pyridin-2-yl)piperidin-1-yl)methyl)-1-(oxetan-2-ylmethyl)-1H-benzo[d]imidazole-6-carboxylic acid], the EC50 in assay [2] (setting [3]) turned out to be 36.5 nM. On to `O=C(O)c1ccc2nc(CN3CCC(c4cccc(OCc5ncc(C(F)(F)F)s5)n4)CC3)n(C[C@@H]3CCO3)c2c1` [Example 14, (S)-1-(oxetan-2-ylmethyl)-2-((4-(6-((5-(trifluoromethyl)thiazol-2-yl)methoxy)pyridin-2-yl)piperidin-1-yl)methyl)-1H-benzo[d]imidazole-6-carboxylic acid], for which, in assay [2] (setting [3]), the EC50 worked out at 1.8 nM.

In the case of `O=C(O)c1ccc2nc(CN3CCC(c4cccc(OCc5cc(C(F)(F)F)cs5)n4)CC3)n(C[C@@H]3CCO3)c2c1` [Example 16, (S)-1-(oxetan-2-ylmethyl)-2-((4-(6-((4-(trifluoromethyl)thiophen-2-yl)methoxy)pyridin-2-yl)piperidin-1-yl)methyl)-1H-benzo[d]imidazole-6-carboxylic acid], the EC50 in assay [2] (setting [3]) is 4.1 nM. Take `COCCn1c(CN2CCC(c3cccc(OCc4csc5cc(Cl)ccc45)n3)CC2)nc2ccc(C(=O)O)cc21` [Example 11, 2-((4-(6-((6-chlorobenzo[b]thiophen-3-yl)methoxy)pyridin-2-yl)piperidin-1-yl)methyl)-1-(2-methoxyethyl)-1H-benzo[d]imidazole-6-carboxylic acid]: the EC50 in assay [1] was 156 nM. Same read-out and setting: the same measure for `COCCn1c(CN2CCC(c3cccc(OCc4nccs4)n3)CC2)nc2ccc(C(=O)O)cc21` [Example 18, 1-(2-methoxyethyl)-2-((4-(6-(thiazol-2-ylmethoxy)pyridin-2-yl)piperidin-1-yl)methyl)-1H-benzo[d]imidazole-6-carboxylic acid]: 869 nM. As for `Cn1cc(C#Cc2ccc(COc3cccc(C4CCN(Cc5nc6ccc(C(=O)O)cc6n5C[C@@H]5CCO5)CC4)n3)s2)cn1` [Example 9, 2-[[4-[6-[[5-[2-(1-methylpyrazol-4-yl)ethynyl]-2-thienyl]methoxy]-2-pyridyl]-1-piperidyl]methyl]-3-[[(2S)-oxetan-2-yl]methyl]benzimidazole-5-carboxylic acid], the EC50 in assay [2] (setting [3]) amounted to 3.3 nM.

In assay [1], `COCCn1c(CN2CCC(c3cccc(OCc4ccsc4)n3)CC2)nc2ccc(C(=O)O)cc21` [Example 12, 1-(2-methoxyethyl)-2-((4-(6-(thiophen-3-ylmethoxy)pyridin-2-yl)piperidin-1-yl)methyl)-1H-benzo[d]imidazole-6-carboxylic acid] gave an EC50 of 831 nM. Take `O=C(O)c1ccc2nc(Cc3cc(F)c(-c4cccc(OCc5cc(C(F)(F)F)cs5)n4)cc3F)n(C[C@@H]3CCO3)c2c1` [Example 10, 2-[[2,5-difluoro-4-[6-[[4-(trifluoromethyl)-2-thienyl]methoxy]-2-pyridyl]phenyl]methyl]-3-[[(2S)-oxetan-2-yl]methyl]benzimidazole-5-carboxylic acid]: the EC50 in assay [2] (setting [3]) was found to be 0.4 nM. For `COCCn1c(CN2CCC(c3cccc(OCc4cscn4)n3)CC2)nc2ccc(C(=O)O)cc21` [Example 19, 1-(2-methoxyethyl)-2-((4-(6-(thiazol-4-ylmethoxy)pyridin-2-yl)piperidin-1-yl)methyl)-1H-benzo[d]imidazole-6-carboxylic acid], a half-maximal response in assay [1] (EC50) required 5900 nM. In the case of `N#Cc1cnc(COc2cccc(C3CCN(Cc4nc5ccc(C(=O)O)cc5n4C[C@@H]4CCO4)CC3)n2)s1` [Example 17, (S)-2-((4-(6-((5-cyanothiazol-2-yl)methoxy)pyridin-2-yl)piperidin-1-yl)methyl)-1-(oxetan-2-ylmethyl)-1H-benzo[d]imidazole-6-carboxylic acid], in assay [2] (setting [3]), the EC50 was determined as 24.1 nM.

In assay [1], `COCCn1c(CN2CCC(c3cccc(OCc4sc(C#N)cc4F)n3)CC2)nc2ccc(C(=O)O)cc21` [Example 1, 2-((4-(6-((5-cyano-3-fluorothiophen-2-yl)methoxy)pyridin-2-yl)piperidin-1-yl)methyl)-1-(2-methoxyethyl)-1H-benzo[d]imidazole-6-carboxylic acid] displayed an EC50 of 166 nM. Same read-out and setting: the same measure for `COCCn1c(CN2CCC(c3cccc(OCc4cnc(Cl)s4)n3)CC2)nc2ccc(C(=O)O)cc21` [Example 3, 2-[[4-[6-[(2-chlorothiazol-5-yl)methoxy]-2-pyridyl]-1-piperidyl]methyl]-3-(2-methoxyethyl)benzimidazole-5-carboxylic acid]: 307 nM. `O=C(O)c1ccc2nc(CN3CCC(c4cccc(OCc5ccn(C(F)F)n5)n4)CC3)n(C[C@@H]3CCO3)c2c1` [Example 8, (S)-2-((4-(6-((1-(difluoromethyl)-1H-pyrazol-3-yl)methoxy)pyridin-2-yl)piperidin-1-yl)methyl)-1-(oxetan-2-ylmethyl)-1H-benzo[d]imidazole-6-carboxylic acid]: the EC50 in assay [2] (setting [3]) came out at 21.5 nM. As to `COCCn1c(CN2CCC(c3cccc(OCc4csc5ccccc45)n3)CC2)nc2ccc(C(=O)O)cc21` [Example 13, 2-((4-(6-(benzo[b]thiophen-3-ylmethoxy)pyridin-2-yl)piperidin-1-yl)methyl)-1-(2-methoxyethyl)-1H-benzo], the EC50 in assay [1] stood at 197 nM. In turn, `N#Cc1ccc(COc2cccc(C3CCN(Cc4nc5ccc(C(=O)O)cc5n4C[C@@H]4CCO4)CC3)n2)s1` [Example 6, (S)-2-((4-(6-((5-cyanothiophen-2-yl)methoxy)pyridin-2-yl)piperidin-1-yl)methyl)-1-(oxetan-2-ylmethyl)-1H-benzo[d]imidazole-6-carboxylic acid] registered an EC50 in assay [2] of 0.9 nM. As to `O=C(O)c1ccc2nc(CN3CCC(c4cccc(OCc5nc(C(F)(F)F)cs5)n4)CC3)n(C[C@@H]3CCO3)c2c1` [Example 15, (S)-1-(oxetan-2-ylmethyl)-2-((4-(6-((4-(trifluoromethyl)thiazol-2-yl)methoxy)pyridin-2-yl)piperidin-1-yl)methyl)-1H-benzo[d]imidazole-6-carboxylic acid], the EC50 in assay [2] (setting [3]) was 5.2 nM. Same read-out and setting: the same measure for `Cn1ccc(COc2cccc(C3CCN(Cc4nc5ccc(C(=O)O)cc5n4C[C@@H]4CCO4)CC3)n2)n1` [Example 5, (S)-2-((4-(6-((1-methyl-1H-pyrazol-3-yl)methoxy)pyridin-2-yl)piperidin-1-yl)methyl)-1-(oxetan-2-ylmethyl)-1H-benzo[d]imidazole-6-carboxylic acid]: greater than 100 nM.

The values above are taken from patent US12091404B2 (Gilead Sciences, Inc., priority 2021, dated 2024).
